Measurements from patent US20210023223A1, “HYDROCARBON / LIPID - CAROTENOID COMPLEXES” (IP SCIENCE LIMITED, priority 2018, published 2021).

Assays:
[1] = system: moderately obese volunteers; assay: Lipoprotein O2 by catalymetry; assay type: in vivo, human
Description: (§1) Study Design. The total number of volunteers recruited to take part in the study was 18 (9 male and 9 female subjects) Caucasians 40-67 years old.
(§2) Products Formulated with Lycopene was developed and made by Lycotec Ltd. (Cambridge, United Kingdom). The daily dose was 1 capsule of 20 mg of lycopene, and it was taken with the main meal of the day. The period of administration was 1 month.
LDL-Px and Lipoprotein O2. Activity of serum LDL peroxidase proteins, which include IgG with superoxide dismutase activity, was measured as described previously. Plasma oxygen, which carried by blood lipids/lipoproteins was measured by catalymetry.

[2] = system: moderately obese volunteers; assay: Tissue oxygenation StO2 by NIRS, 20 mg lycopene study; assay type: in vivo, human
Description: as §1, §2
Thenar eminence and forearm muscles of the patients were used as a tissue target for the assessment of oxygen saturation, StO2, or combined level of oxygenated haemoglobin and myoglobin. StO2 was assessed by continuous wavelength near-infrared spectroscopy, NIRS, with wide-gap second-derivative (In Spectra, Hutchinson Technology, MN, USA). The measurements were taken at different time points.
The recording was initiated after 15 min of rest in a supine position before occlusion of the brachial artery. It was then continued during stagnant ischemia induced by rapidly inflating the cuff to 50 mm Hg above systolic BP. The ischemia lasted for 3 min, and the recording period lasted for another 5 min after that until StO2 was stabilized. The area under the hyperaemic curve, AUC, of the recorded signal for the settling time in the post-occlusion period was then calculated as described earlier in % O2/minute.

[3] = after 20 mg lycopene daily for one month

For CC(C)=CCC/C(C)=C/C=C/C(C)=C/C=C/C(C)=C/C=C/C=C(C)/C=C/C=C(C)/C=C/C=C(\C)CCC=C(C)C [Lycopene], the “Lipoprotein O2” value [1, 3] was 3.44 ± 0.27 µM, the “Lipoprotein O2” value ([1]; before, n = 18) was 2.94 ± 0.25 µM and the StO2 [2, 3] was 80.4 ± 5.3^ AUC mm. For the same compound, the StO2 ([2]; before, n = 18) was 64.1 ± 4.9^ AUC mm.
